The source of these data is patent publication US8604161B2 (priority 2002, dated 2013).

One assay has as its target PrPres (Mesocricetus auratus, UniProt P04273). The settings on record: for PrPres bound to resin in five 10 ml columns in series / removal of PrPres: 300 ml RBCC spiked with 0.1% scrapie hamster brain homogenate, Western blot of bead eluates; for Resin needed to remove all PrPres to the limit of detection of the Western blot: 300 ml spiked RBCC, 3 columns of 10 ml. A general note: In western blotting, separated proteins are transferred to a membrane and probed.

The next assay addresses haPrPc and haPrPsc (Mesocricetus auratus, UniProt P04273). The settings on record: 3-mer library, hamster brain homogenates.
The target of the next assay is PrPc (Mesocricetus auratus, UniProt P04273). The settings on record: 1% normal hamster brain homogenate, 0.5 ml column.
Chain of PrPc (P04273 23-231 limits assumed): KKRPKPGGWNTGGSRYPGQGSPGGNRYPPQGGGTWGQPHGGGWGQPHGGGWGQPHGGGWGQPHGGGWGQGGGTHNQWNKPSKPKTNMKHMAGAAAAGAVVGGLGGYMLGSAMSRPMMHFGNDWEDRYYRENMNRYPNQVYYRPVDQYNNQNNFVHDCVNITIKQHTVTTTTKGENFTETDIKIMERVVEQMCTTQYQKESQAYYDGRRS

Chain of PrPres (P04273 23-231 limits assumed): as above
Chain of haPrPc and haPrPsc (P04273 23-231 limits assumed): as above

For (D)ES(na)PRQ-EACA [SEQ ID NO:226], the “PrPres bound to resin in five 10 ml columns in series / removal of PrPres” value (“PrPres bound … in series / removal of PrPres” for short) on PrPres is given as “decreasing amounts of PrPres on columns 1 through 3”.
For the substance DVR [SEQ ID NO:114], the “Preferential binding of PrPsc over PrPc” value at haPrPc and haPrPsc was “bind preferentially PrPsc over PrPc”. At PrPres, the “PrPres bound … in series / removal of PrPres” value was “remove all of the PrPres to the limit of detection of the Western blot in 3 columns” and the “Resin needed to remove all PrPres to the limit of detection of the Western blot” value turned out to be 30 mL. On PrPc, the “Location of bound PrPc on chopped resin beads” value was “protein bound to the exterior of the beads”.
As for SYA [SEQ ID NO:108], at PrPres, the “PrPres bound … in series / removal of PrPres” value is “remove all of the PrPres to the limit of detection of the Western blot in 3 columns” and the “Resin needed to remove all PrPres to the limit of detection of the Western blot” value was determined as 30 mL.
With VQR [SEQ ID NO:111], the “Preferential binding of PrPsc over PrPc” value at haPrPc and haPrPsc is reported as “bind preferentially PrPsc over PrPc”.
Take WFVEA [SEQ ID NO:225]: the “PrPres bound … in series / removal of PrPres” value at PrPres is “does not bind and remove all of the prion protein to the limit of detection”.
Same read-out and setting: to YVHEA [SEQ ID NO:63] belongs “decreasing amounts of PrPres on columns 1 through 3”.
